According to US12576051B2, “Methods and composition for treating respiratory obstructive diseases” (The Regents of the University of California, priority 2019, dated 2026):
Counter-ions that a name gives are not always drawn.

Legend:
[1] = test system: porcine airway; test: Ex vivo porcine airway models (summary statement)
Source text: Abnormal mucus accumulation in airways has deleterious, and fatal consequence in patients suffering from respiratory obstructive diseases, such as cystic fibrosis (CF), COPD and asthma. Therefore, there is a need for therapies aimed at decreasing mucus accumulation to facilitate airway mucus clearance.

[2] = test system: secreted Muc5ac mucin; test: Mucolytic activity on secreted Muc5ac mucin of open porcine trachea sections (western blot); details: for breaking down the mucus (secreted Muc5ac western blot) / native Muc5ac levels on epithelial luminal surfaces (immunoblot): 2 mM; for breaking down the mucus (secreted Muc5ac western blot): 5 minutes at 37° C., then 7% NaCl inhaled solution 5 mins, FIG. 19; for native Muc5ac levels on epithelial luminal surfaces (immunoblot): HCO3-Ringer with PGE2 (1 uM), 10 minutes at 37° C., FIG. 18
Method: FIG. 18 provides the mucolytic activity of compounds on secreted Muc5ac mucin. Epithelial luminal surface of open porcine trachea sections (˜2 cm^2) were covered with HCO3-Ringer solution ([…]) containing PGE2 (1 uM), and alcian blue (0.02%), with or without compounds at a 2 mM final concentration, and incubated for 10 minutes at 37° C. Equal volumes of each collected sample were separated on vertical electrophoresis, and then transfer to an immobilon-P membrane for western blot analysis. […] Densitometric signal of the untreated sample, as control, was normalized to 100% (% arbitrary units).
Epithelial luminal surface of open porcine trachea sections (˜2 cm^2) were covered with […] of HCO3-Ringer solution containing PGE2 (1 uM), in the presence or absence of compounds at a 2 mM final concentration, and incubated for 5 minutes at 37° C. Afterwards, […] of sterile 7% NaCl inhaled solution was added and incubated for another 5 mins at 37° C. Equal volumes of each collected sample were separated on vertical electrophoresis, and then transferred to an immobilon-P membrane for western blot analysis. […] Densitometric signal of the non-treated sample, as control, was normalized to 100% (% arbitrary units).

[3] = test system: respiratory secreted mucus; test: Mucolytic activity on respiratory secreted mucus of open porcine trachea sections (alcian blue); details: 2 mM, HCO3-Ringer with PGE2 (1 uM) and alcian blue (0.02%), 10 minutes at 37° C., untreated showed clusters of secreted mucus
Method: (§1) FIG. 16 provides the mucolytic activity of compounds 646 and 647 on respiratory secreted mucus. Small sections of open porcine trachea (˜2 cm^2) were covered with HCO3-Ringer solution ([…]) containing PGE2 (1 uM) and alcian blue (0.02%), with or without compounds at a 2 mM final concentration, and then incubated for 10 minutes at 37° C.
as §1, with “17” for “16”, “655” for “646”, “656” for “647”

[4] = test system: Muc5ac mucin from porcine airway mucus; test: Mucolytic effect on Muc5ac mucin from porcine airway mucus (western blot, densitometry); format: biochemical; details: 2 mM, 30 mins at 37° C.; compound preincubated in HCO3-Ringer, HCO3-Ringer/acetic acid or acetate buffer pH 4.5
Method: (§2) (Upper panel) Identification of Muc5ac mucin (black arrow) by western blot, from airway mucus sample collected in HCO3-Ringer and treated with or without 2 mM of compound 646 for 30 mins at 37° C. Lane CTRL, untreated sample as control. Lane Bic, sample treated with compound preincubated in HCO3-Ringer; lane Bic/Ac, sample treated with compound preincubated with 1:1 HCO3-Ringer/Acetic acid 0.1N; lane Ac, sample treated with compound preincubated in acetate buffer 1M, pH 4.5. Lower panel, densitometric analysis of the protein bands identified with the Muc5ac mucin antibody. Densitometric signal of the sample control (CTRL) was normalized as 100% (% arbitrary units).
as §2, with “647” for “646”, “4.5, as described under Methods.” for “4.5.”, “units). Control is pH 8, Bic 7.4, Bic/AC 6.9 AND AC 6.2” for “units).”
as §2, with “655” for “646”
as §2, with “compounds 656” for “compound 646”

[5] = cited from earlier work

Molecule | accumulation of viscous mucus and mucociliary clearance [1] | native Muc5ac levels on epithelial luminal surfaces (immunoblot) [2] | influence of acidic and basic conditions on mucolytic activity on porcine Muc5ac mucin [4] | further results
[2H]C(CN)SSC([2H])CN (stereo not drawn) [Compound 647, 2,2′-disulfanediylbis(ethan-2-d-1-amine) dihydrochloride] | prevented accumulation of viscous mucus and improves mucociliary clearance | decreased native Muc5ac levels | enhanced under acidic conditions | breaking down the mucus (secreted Muc5ac western blot) [2]: consistently works well in breaking down the mucus; appearance of secreted mucus on trachea sections ([3]; dihydrochloride): dispersed clusters of secreted mucus
Cl.Cl.[2H]C([2H])(CN)SSC([2H])([2H])CN [Compound 655, 2,2′-disulfanediylbis(ethan-2,2-d2-1-aminium) chloride] | prevented accumulation of viscous mucus and improves mucociliary clearance | decreased native Muc5ac levels | enhanced under acidic conditions | breaking down the mucus (secreted Muc5ac western blot) [2]: consistently works well in breaking down the mucus; mucolytic activity in comparison ([2]; comparison between deuterated cystamine compounds): better mucolytic activity than Compound 647; appearance of secreted mucus on trachea sections [3]: dispersed secreted mucus
Cl.[2H]C([2H])(S)CN [Compound 656, 2-mercaptoethan-2,2-d2-1-aminium chloride] | prevented accumulation of viscous mucus and improves mucociliary clearance | decreased native Muc5ac levels | enhanced under acidic conditions | appearance of secreted mucus on trachea sections [3]: dispersed secreted mucus
CC(C)(C)c1cc(C(C)(C)C)c(NC(=O)c2c[nH]c3ccccc3c2=O)cc1O [Ivacaftor, reference compound] |  |  |  | improvement of lung function ([5]; taken by mouth, CF with ivacaftor-responsive mutations): about 10%
CC(=O)N[C@@H](CS)C(=O)O [NAC, N-acetylcysteine, reference compound] |  |  |  | efficacy with respect to improvement of lung function or reduction in pulmonary exacerbations ([5]; inhaled, CF and COPD): do not support the efficacy
NCCSSCCN [cystamine, reference compound] | prevented accumulation of viscous mucus and improves mucociliary clearance |  |  | 
rhDNase: recombinant human DNase, an enzyme that breaks down extracellular DNA in mucus (protein, UniProt P24855 23-282, looked up) Deoxyribonuclease-1: LKIAAFNIQTFGETKMSNATLVSYIVQILSRYDIALVQEVRDSHLTAVGKLLDNLNQDAPDTYHYVVSEPLGRNSYKERYLFVYRPDQVSAVDSYYYDDGCEPCGNDTFNREPAIVRFFSRFTEVREFAIVPLHAAPGDAVAEIDALYDVYLDVQEKWGLEDVMLMGDFNAGCSYVRPSQWSSIRLWTSPTFQWLIPDSADTTATPTHCAYDRIVVAGMLLRGAVVPDSALPFNFQAAYGLSDQLAQAISDHYPVEVMLK |  |  |  | clinical benefit ([5]; inhaled, adult CF subjects): substantial clinical benefits; efficacy ([5]; obstructive diseases other than CF): ineffective
